Experimental data as given in article PMC12548414 (Journal of Bacteriology, 2025).
Values after ≈ are worked out from the molar mass of the structure shown.

Experiments:
[1] = tested on: T1, E. coli pLC1021 (luc-trpAt trans-translation reporter); design: species or system Escherichia coli pLC1021; luc-trpAt non-stop luciferase reporter; luminescence rises when trans-translation is inhibited; normalized to KKL-35 and DMSO; details: 2 h, 20 µM
T1 construct: pLC1021 luc-trpAt reporter strain
Experimental: The luciferase screen was performed as previously described ([16]). […] 48 µL of cells was transferred to white 96-well plates, and 2 µL DMSO or 20 µM compound, or 20 µM KKL-35 was added. Plates were sealed with adhesive film, vortexed gently to mix, and incubated at room temperature for 2 h. 50 µL Bright-Glo reagent (Promega, Madison, WI) was added to each well, and the plates were sealed with adhesive film, vortexed vigorously, and incubated for an additional 10 min at room temperature. Luminescence was measured at 560 nm using a SpectraMax i3 microplate reader and readings for each plate were normalized to the average of three KKL-35-treated wells (positive control) and three DMSO-treated wells (negative control) within the plate to correct for plate-to-plate and day-to-day variations. Results from at least two biological repeats were averaged, and GraphPad Prism was used to plot the data. We screened a library of 1,601 anti-tubercular small molecules for their ability to inhibit trans-translation using a luciferase reporter in Escherichia coli. In this luc-trpAt reporter, the firefly luciferase gene has a trpA transcriptional terminator before the stop codon, such that luciferase is translated from a non-stop mRNA ([16]). When trans-translation is active, the luciferase will be tagged and degraded, but when trans-translation is inhibited, active luciferase will accumulate, resulting in a luminescent signal when luciferin is added. Luciferase activity was measured after growth in the presence of compounds from the library at 20 µM, using the known trans-translation inhibitor KKL-35 as a positive control (Fig. 1A) ([16], [17]). Compounds with activity one standard deviation above the median were scored as positive (Fig. S1 and Table S1).

[2] = molecular target: T2, ribosomal protein bL12 (Escherichia coli, UniProt P0A7K2); test: biochemical; type: binding
T2 construct: gene rplL

[3] = tested on: T3, E. coli ΔtolC; test: microbe, parasite or virus in culture; design: species or system Escherichia coli ΔtolC; broth microdilution MIC, lowest concentration with no visible growth; details: Escherichia coli, 20 h, read-out: MIC
T3 construct: ΔtolC

[4] = tested on: M. tuberculosis; test: microbe, parasite or virus in culture; design: species or system Mycobacterium tuberculosis H37Rv ΔRD1 ΔpanCD; details: Mycobacterium tuberculosis, 168 h, read-out: MIC
[5] = tested on: B. anthracis; test: microbe, parasite or virus in culture; details: Bacillus anthracis, 20 h, read-out: MIC
[6] = molecular target: T4, ribosomal protein bL12 (Mycobacterium tuberculosis, UniProt P9WHE3); test: biochemical; type: binding
T4 construct: gene rplL; 6His-tagged M. tuberculosis bL12
T4 sequence (P9WHE3 1-130): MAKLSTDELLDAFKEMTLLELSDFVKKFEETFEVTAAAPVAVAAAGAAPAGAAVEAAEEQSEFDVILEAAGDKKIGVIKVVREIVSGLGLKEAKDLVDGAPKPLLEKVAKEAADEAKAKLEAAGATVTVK

T2 sequence (P0A7K2 2-121): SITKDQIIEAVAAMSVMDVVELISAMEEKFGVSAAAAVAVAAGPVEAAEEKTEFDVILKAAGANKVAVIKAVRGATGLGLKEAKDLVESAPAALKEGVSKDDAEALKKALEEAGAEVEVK

| Structure (SMILES) | % activation [1] [%] | also measured |
| --- | --- | --- |
| Cc1cccc(-c2nc(Nc3ccncn3)c3c(C)csc3n2)n1 [KKL-1712] | 6 |  |
| CCc1ccc([C@@H]2C[C@H](C(F)(F)F)n3ncc(C(=O)NCc4ccc(OC)cc4)c3N2)cc1 [KKL-1692] | 0 |  |
| Cc1ccc2nc(C)c(C(=O)NCc3cccs3)n2c1 [KKL-1863] | 4 |  |
| c1cc2c(s1)CCOC21CCN(Cc2ccc3c(c2)OCCO3)CC1 [KKL-1815] | 0 |  |
| CC(C)[C@H]1OC(=O)[C@H](Cc2ccccc2)N(C)C(=O)[C@@H](C(C)C)OC(=O)[C@H](Cc2ccccc2)N(C)C(=O)[C@@H](C(C)C)OC(=O)[C@H](Cc2ccccc2)N(C)C1=O [KKL-0304] | 0 |  |
| CNc1nc(SC)nc2ccccc12 [KKL-1869] | 0 |  |
| COc1ccc(CCNc2cc(-c3ccccc3)nc3ncnn23)cc1 [KKL-1831] | 3 |  |
| O=C(NC12CC3CC(CC(C3)C1)C2)c1cc2cc(Cl)ccc2[nH]1 [KKL-1781] | 0 |  |
| O=C(Nc1nc(NC(=O)c2ccco2)n(-c2ccccc2)n1)c1ccccc1 [KKL-1005, N-(5-benzamido-2-phenyl-1,2,4-triazol-3-yl)furan-2-carboxamide] |  | Kd [2]: 8 ± 2 µM; MIC [3]: 9.3 µg/mL (≈ 24.9 µM); MIC [4]: 4.7 µg/mL (≈ 12.6 µM); MIC [5]: 9.3 µg/mL (≈ 24.9 µM); Kd [6]: 4 ± 0.2 µM |
| Cc1cccc(-c2nc(Nc3ccncn3)c3sccc3n2)n1 [KKL-1695] | 0 |  |
